PubChem BioAssay AID1919008 (Molecular Pharmacology Branch, DTP, NCI, 2023)

System: DMS-114 complex spheroids with HUVEC/MSC, growth % test/control
Assay: Anticancer human tumor DMS-114 cell line growth inhibition [AhR];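 note: spheroids exposed to agents for 7 days before readout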;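 for viability, T/C: 100% = DMSO vehicle control wells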
Settings: for IC50: curve of first compound; for viability, T/C: stronger effect = lower value
From the text: Multicellular complex tumor spheroid response to aryl hydrocarbon receptor antagonists in combination with a variety of drugs and investigational agents in selected tumor cell lines
The current study was undertaken to assess response to aryl hydrocarbon receptor antagonists in combination with standard-of-care drugs and investigational agents in solid tumor complex spheroid models. Complex spheroids include a stromal component modeled by human endothelial cells (HUVEC) and fibroblasts modeled by human mesenchymal stem cells (MSCs). The concentration ranges selected for each drug and investigational agent were based upon clinically achievable concentrations if the clinical Cmax of the agent was known.
Compounds. The drugs and investigational agents: BAY 2416964 (NSC825713), GNF351 (NSC835774), CH-223191 (NSC835775), CPI-455 (NSC825282), aza-TdCyd (NSC777586), decitabine (NSC127716), belinostat (NSC758774), entinostat (NSC756642), pevonedistat (NSC761192), tazemetostat (NSC777109), talazoparib (NSC765396), olaparib (NSC753686), selinexor (NSC780203), nedisertib (M3814, NSC802822), bortezomib (NSC756655), venetoclax (NSC766270), doxorubicin (NSC123127), elimusertib (BAY189344, NSC800525), ceralasertib (AZD6738, NSC777638), TAK-243 (NSC785004), alisertib (NSC759677), etoposide (NSC141540), topotecan (NSC609699), eribulin (NSC707389), gemcitabine (NSC613327), carboplatin (NSC241240), cisplatin (NSC119875), and SN-38 (NSC673596) were obtained from the National Cancer Institute (NCI) Developmental Therapeutics Program Chemical Repository (32). The FDA-approved anticancer drug set is available from the Developmental Therapeutics Program at https://dtp.cancer.gov/organization/dscb/obtaining/available plates.htm. […] The stock solutions were prepared in dimethyl sulfoxide (DMSO, Sigma-Aldrich, St. Louis, MO, cat. D2650), except for the platinum compounds which were prepared in saline (Quality Biological, Gaithersburg, MD, cat. 114-055-101), at 800-fold the tested concentration and stored at -70 degrees C prior to their use. All drugs and investigational agents were tested over a range starting from a high concentration at or near the clinical Cmax and decreasing in half-log increments. If the clinical Cmax for an agent had not been determined, the highest concentration tested was 10 microM (Table 1).
Cell Culture. All cells were maintained in an incubator at 37 degrees C and 5% CO2 with 95% humidity. The PDC lines were cultured according to standard operating procedures established by the NCI PDMR (https://pdmr.cancer.gov). Briefly, all PDCs were thawed and cultured in Matrigel-coated flasks prepared with a working solution of 1X Ham's F-12 nutrient mix, without supplementation (Invitrogen, Waltham, MA, cat. 11765054), 100 U/mL penicillin-streptomycin (Invitrogen, cat. 15140122), and 2.5% Matrigel (Corning Inc., Corning, NY, cat. 354248) for the first three passages. All PDCs were cultured in complete DMEM/F-12 media containing advanced DMEM/F-12 (Invitrogen, cat. 12634028), 4.9% defined fetal bovine serum, heat inactivated (HyClone Laboratories Inc., Logan, UT, cat. SH30070.03HI), 389 ng/mL hydrocortisone (Sigma-Aldrich, cat. H4001), 9.7 ng/mL human EGF recombinant protein (Invitrogen, cat. PHG0313), 23.4 microg/mL adenine (Sigma-Aldrich, cat. A2786), 97.3 U/mL penicillin-streptomycin (Invitrogen, cat. 15140122), 1.9 mM L-glutamine (Invitrogen, cat. 25030081), and 9.7 microM Y-27632 dihydrochloride (Tocris Bioscience, Bristol, United Kingdom, cat. 1254). The PDCs were cultured in complete DMEM/F12 media without 10 microM Y-27632 dihydrochloride for at least two passages prior to the screen. The established cell lines NCI-H1341 and […] were cultured in DMEM/F-12, HEPES (Invitrogen, cat. 11330032), 5% defined fetal bovine serum (HyClone Laboratories Inc., cat. SH30070.03), ITS premix universal culture supplement [insulin (5 microg/mL), transferrin (5 microg/mL), and selenious acid (5 ng/mL)] […]

[1] = second compound 0.1 µM, first compound 0.0316 µM
[2] = second compound 0.1 µM, first compound 0.1 µM
[3] = second compound 0.1 µM, first compound 0.316 µM
[4] = second compound 0.1 µM, first compound 1 µM
[5] = second compound 0.1 µM, first compound 3.16 µM
[6] = second compound 0.1 µM, first compound 10 µM
[7] = second compound 0.316 µM, first compound 0.0316 µM
[8] = second compound 0.316 µM, first compound 0.1 µM
[9] = second compound 0.316 µM, first compound 0.316 µM
[10] = second compound 0.316 µM, first compound 1 µM
[11] = second compound 0.316 µM, first compound 3.16 µM
[12] = second compound 0.316 µM, first compound 10 µM
[13] = second compound 1 µM, first compound 0.0316 µM
[14] = second compound 1 µM, first compound 0.1 µM
[15] = second compound 1 µM, first compound 0.316 µM
[16] = second compound 1 µM, first compound 1 µM
[17] = second compound 1 µM, first compound 3.16 µM
[18] = second compound 1 µM, first compound 10 µM
[19] = second compound 3.16 µM, first compound 0.0316 µM
[20] = second compound 3.16 µM, first compound 0.1 µM
[21] = second compound 3.16 µM, first compound 0.316 µM
[22] = second compound 3.16 µM, first compound 1 µM
[23] = second compound 3.16 µM, first compound 3.16 µM
[24] = second compound 3.16 µM, first compound 10 µM
[25] = second compound 10 µM, first compound 0.0316 µM
[26] = second compound 10 µM, first compound 0.1 µM
[27] = second compound 10 µM, first compound 0.316 µM
[28] = second compound 10 µM, first compound 1 µM
[29] = second compound 10 µM, first compound 3.16 µM
[30] = second compound 10 µM, first compound 10 µM

## CC(C)CC(NC(=O)C(Cc1ccccc1)NC(=O)c1cnccn1)B(O)O (stereo not given) + CC(CO)NC(=O)c1cc(-c2ccc(Cl)cc2)nn(-c2cnn(C)c2)c1=O
Second compound 0.1 µM
  IC50: 3.61 nM
Second compound 0.316 µM
  IC50: 4.04 nM
Second compound 1 µM
  IC50: 3.33 nM
Second compound 3.16 µM
  IC50: 3.29 nM
Second compound 10 µM
  IC50: 4.34 nM
Second compound 0.1 µM, first compound 0.000949 µM
  viability, T/C: 100%
Second compound 0.1 µM, first compound 0.003 µM
  viability, T/C: 59.4%
Second compound 0.1 µM, first compound 0.00949 µM
  viability, T/C: 0.72%
Second compound 0.1 µM, first compound 0.03 µM
  viability, T/C: 0.35%
Second compound 0.1 µM, first compound 0.0949 µM
  viability, T/C: 0.11%
Second compound 0.1 µM, first compound 0.3 µM
  viability, T/C: 0.29%
Second compound 0.316 µM, first compound 0.000949 µM
  viability, T/C: 95.5%
Second compound 0.316 µM, first compound 0.003 µM
  viability, T/C: 66.8%
Second compound 0.316 µM, first compound 0.00949 µM
  viability, T/C: 1.94%
Second compound 0.316 µM, first compound 0.03 µM
  viability, T/C: 0.05%
Second compound 0.316 µM, first compound 0.0949 µM
  viability, T/C: 0.3%
Second compound 0.316 µM, first compound 0.3 µM
  viability, T/C: 0.42%
Second compound 1 µM, first compound 0.000949 µM
  viability, T/C: 113%
Second compound 1 µM, first compound 0.003 µM
  viability, T/C: 54.8%
Second compound 1 µM, first compound 0.00949 µM
  viability, T/C: 1.26%
Second compound 1 µM, first compound 0.03 µM
  viability, T/C: 0.32%
Second compound 1 µM, first compound 0.0949 µM
  viability, T/C: 0.11%
Second compound 1 µM, first compound 0.3 µM
  viability, T/C: 0.25%
Second compound 3.16 µM, first compound 0.000949 µM
  viability, T/C: 85.7%
Second compound 3.16 µM, first compound 0.003 µM
  viability, T/C: 54.4%
Second compound 3.16 µM, first compound 0.00949 µM
  viability, T/C: 0.8%
Second compound 3.16 µM, first compound 0.03 µM
  viability, T/C: 0.07%
Second compound 3.16 µM, first compound 0.0949 µM
  viability, T/C: 0.76%
Second compound 3.16 µM, first compound 0.3 µM
  viability, T/C: 0.17%
Second compound 10 µM, first compound 0.000949 µM
  viability, T/C: 99%
Second compound 10 µM, first compound 0.003 µM
  viability, T/C: 72.8%
Second compound 10 µM, first compound 0.00949 µM
  viability, T/C: 1.52%
Second compound 10 µM, first compound 0.03 µM
  viability, T/C: 0.2%
Second compound 10 µM, first compound 0.0949 µM
  viability, T/C: 0.15%
Second compound 10 µM, first compound 0.3 µM
  viability, T/C: 0.26%

## Nc1ccccc1NC(=O)c1ccc(CNC(=O)OCc2cccnc2)cc1 + CC(CO)NC(=O)c1cc(-c2ccc(Cl)cc2)nn(-c2cnn(C)c2)c1=O
Second compound 0.1 µM
  IC50: 749 nM
Second compound 0.316 µM
  IC50: 782 nM
Second compound 1 µM
  IC50: 726 nM
Second compound 3.16 µM
  IC50: 650 nM
Second compound 10 µM
  IC50: 813 nM
[1]
  viability, T/C: 87.3%
[2]
  viability, T/C: 85.8%
[3]
  viability, T/C: 68.2%
[4]
  viability, T/C: 43.6%
[5]
  viability, T/C: 23.1%
[6]
  viability, T/C: 13.4%
[7]
  viability, T/C: 87%
[8]
  viability, T/C: 89.7%
[9]
  viability, T/C: 76.4%
[10]
  viability, T/C: 42.3%
[11]
  viability, T/C: 20.6%
[12]
  viability, T/C: 13.5%
[13]
  viability, T/C: 91.2%
[14]
  viability, T/C: 87.6%
[15]
  viability, T/C: 73.4%
[16]
  viability, T/C: 39.8%
[17]
  viability, T/C: 24.6%
[18]
  viability, T/C: 14.8%
[19]
  viability, T/C: 92.8%
[20]
  viability, T/C: 75.4%
[21]
  viability, T/C: 68.5%
[22]
  viability, T/C: 40.1%
[23]
  viability, T/C: 23.2%
[24]
  viability, T/C: 14.8%
[25]
  viability, T/C: 90%
[26]
  viability, T/C: 87.7%
[27]
  viability, T/C: 69.2%
[28]
  viability, T/C: 45.8%
[29]
  viability, T/C: 24.9%
[30]
  viability, T/C: 14.4%

## O=C(C=Cc1cccc(S(=O)(=O)Nc2ccccc2)c1)NO + CC(CO)NC(=O)c1cc(-c2ccc(Cl)cc2)nn(-c2cnn(C)c2)c1=O
Second compound 0.1 µM
  IC50: 406 nM
Second compound 0.316 µM
  IC50: 381 nM
Second compound 1 µM
  IC50: 459 nM
Second compound 3.16 µM
  IC50: 543 nM
Second compound 10 µM
  IC50: 482 nM
[1]
  viability, T/C: 75.9%
[2]
  viability, T/C: 77.6%
[3]
  viability, T/C: 55.1%
[4]
  viability, T/C: 27.2%
[5]
  viability, T/C: 13.3%
[6]
  viability, T/C: 11.9%
[7]
  viability, T/C: 77.6%
[8]
  viability, T/C: 78.3%
[9]
  viability, T/C: 53.2%
[10]
  viability, T/C: 26.2%
[11]
  viability, T/C: 11.3%
[12]
  viability, T/C: 12.4%
[13]
  viability, T/C: 84.6%
[14]
  viability, T/C: 81.2%
[15]
  viability, T/C: 61.1%
[16]
  viability, T/C: 26.9%
[17]
  viability, T/C: 11.1%
[18]
  viability, T/C: 13.5%
[19]
  viability, T/C: 82%
[20]
  viability, T/C: 76.9%
[21]
  viability, T/C: 68.1%
[22]
  viability, T/C: 29.9%
[23]
  viability, T/C: 12.4%
[24]
  viability, T/C: 12.3%
[25]
  viability, T/C: 90.6%
[26]
  viability, T/C: 68.2%
[27]
  viability, T/C: 64.6%
[28]
  viability, T/C: 35%
[29]
  viability, T/C: 13.8%
[30]
  viability, T/C: 14.5%
